pIC50: −log10 of the molar value.
Legend:
[1] = system: Human colon cancer HCT-116 cell lines; experiment: Antitumor effect on tumor cells transplanted into mice 1; assay type: in vivo; conditions: for T/C15 (%): HCT-116 s.c. in BALB/cAJcl-nu/nu mice; for RTV15 comparison with the control: Dunnett's test; for BWC15 (%) Mean ± SD: body weight change
Procedure: Human colon cancer HCT-116 cell lines were washed in PBS and suspended at a concentration of 4×10^7 cells/mL. 0.1 mL of this cell suspension was subcutaneously implanted in the right chest of 6-week-old BALB/cAJcl-nu/nu mice (produced by CLEA Japan, Inc.).
(§1) The length and the width of the implanted tumor and the body weight were measured. The tumor volume (TV) was calculated using the following equation (equation D). TV(mm3)=(length×width^2)/2, wherein the unit of length and width is mm (equation D).
When the TV reached 100 to 300 mm3, the animals were assigned to each group in accordance with a stratified randomization procedure. The day was considered day 1, the TV on the day was considered TV1, and the body weight on the day was considered BW1.
A required amount of the test compound was weighed to prepare an administration solution.
(§2) Thereafter, the length and the width of the tumor and the body weight (BWn) on day n were measured over time in the same manner, and the TVn of each mouse was calculated. Further, the relative tumor volume (RTVn) was calculated based on the TVn of each mouse using the following equation (equation E); the treatment/control (T/C) value (%) was calculated based on the mean RTVn of each drug administration group using the following equation (equation F); and the weight change rate (BWCn) was calculated using the following equation (equation G). RTVn=TVn/TV1 (equation E) T/Cn(%)=(mean RTV of each drug administration group on the last day of the test)/(mean RTV of the control group on the last day of the test)×100 (equation F) BWCn (%)=(BWn−BW1)/BW1×100 (equation G) FIGS. 1 and 2, and Table 21 below show the results.

carbonic anhydrase II = carbonic anhydrase II (Homo sapiens (Human), UniProt P00918); experiment: Carbonic anhydrase II enzyme activity inhibition (4-NPA esterase activity); assay type: biochemical; conditions: for IC50: 4-nitrophenyl acetate esterase activity, absorbance at 405 nm
[2] = molecular target: NAE (heterodimer of APPBP1 and UBA3) (Homo sapiens (Human), UniProt Q8TBC4); experiment: Nedd8 conjugation inhibitory activity (AlphaScreen assay); assay type: biochemical; conditions: purified NAE, GST-UBC12, Biotin-Nedd8, ATP
NAE (heterodimer of APPBP1 and UBA3), sequence (Q8TBC4 whole entry): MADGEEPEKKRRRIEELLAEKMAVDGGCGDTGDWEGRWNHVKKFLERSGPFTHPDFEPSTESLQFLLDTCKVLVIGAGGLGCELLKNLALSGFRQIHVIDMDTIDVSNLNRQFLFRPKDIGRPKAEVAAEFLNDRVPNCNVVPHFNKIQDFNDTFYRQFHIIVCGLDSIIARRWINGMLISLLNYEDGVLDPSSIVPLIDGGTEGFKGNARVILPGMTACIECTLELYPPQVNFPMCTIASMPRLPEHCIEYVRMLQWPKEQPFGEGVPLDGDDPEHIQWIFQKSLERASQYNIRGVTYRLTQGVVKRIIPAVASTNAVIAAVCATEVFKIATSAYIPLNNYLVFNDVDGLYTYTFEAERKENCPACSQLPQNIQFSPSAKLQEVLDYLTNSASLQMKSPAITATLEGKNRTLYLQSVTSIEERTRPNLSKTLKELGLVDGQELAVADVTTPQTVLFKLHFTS
NAE (heterodimer of APPBP1 and UBA3), sequence (Q13564 whole entry partner): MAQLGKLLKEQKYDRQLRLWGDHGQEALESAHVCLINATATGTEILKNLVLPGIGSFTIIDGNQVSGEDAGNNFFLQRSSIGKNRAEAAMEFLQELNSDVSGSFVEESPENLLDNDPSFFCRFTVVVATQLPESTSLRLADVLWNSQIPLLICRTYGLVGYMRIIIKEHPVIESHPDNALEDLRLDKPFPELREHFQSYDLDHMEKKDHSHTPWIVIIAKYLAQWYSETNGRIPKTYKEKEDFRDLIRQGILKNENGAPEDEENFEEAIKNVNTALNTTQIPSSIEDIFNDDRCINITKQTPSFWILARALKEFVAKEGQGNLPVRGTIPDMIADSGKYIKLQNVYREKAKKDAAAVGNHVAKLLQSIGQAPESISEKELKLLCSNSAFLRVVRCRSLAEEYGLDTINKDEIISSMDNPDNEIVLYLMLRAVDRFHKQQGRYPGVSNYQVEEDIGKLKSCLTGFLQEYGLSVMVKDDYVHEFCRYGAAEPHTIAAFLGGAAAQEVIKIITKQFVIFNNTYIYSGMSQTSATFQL

[3] = system: human acute lymphoblastic leukemia (ALL) CCRF-CEM cell lines; experiment: Antitumor effect on tumor cells transplanted into mice 3; assay type: in vivo; conditions: for RTV comparison with the control on day 15: CCRF-CEM xenograft in nude mice, compound hydrochlorides intravenously, Dunnett's test
Procedure: as §1, §2
The tumor growth inhibitory effects on human tumors were evaluated as in Test Example 5, except that the compound hydrochloride obtained in Example 122, the compound hydrochloride (Example 64), and human acute lymphoblastic leukemia (ALL) CCRF-CEM cell lines were used, and the animals were assigned to each group in accordance with a stratified randomization procedure when the TV reached 140 to 380 mm3.
At this time, the cell lines were washed in PBS, and suspended in 50% PBS and 50% Matrigel basement membrane matrix (#356237; produced by BD Biosciences) at a concentration of 1×10^8 cells/mL. 0.1 mL of this cell suspension was subcutaneously implanted to the right chest of 6-week-old BALB/cAJcl-nu/nu mice (nude mice) (produced by CLEA Japan, Inc.). The compound hydrochloride (Example 122) was intravenously administered in an amount of 5 mL per 1 kg of body weight on days 1 and 8, and the compound hydrochloride (Example 133) was intravenously administered in an amount of 5 mL per 1 kg of body weight on days 1 and 8.

[4] = system: human osteo- and soft tissue sarcoma SJCRH30 cell line; experiment: Cell growth inhibition 2, SJCRH30; assay type: cell-based; conditions: 384-well plate
[5] = system: Human colon cancer HCT-116 cell lines; experiment: Antitumor effect on tumor cells transplanted into mice 2; assay type: in vivo
[6] = system: human acute lymphoblastic leukemia (ALL) CCRF-CEM cell lines; experiment: Antitumor effect on tumor cells transplanted into mice 3; assay type: in vivo; conditions: CCRF-CEM xenograft in nude mice, 120 mg/kg/day intravenous
[7] = 50 mg/kg/day intravenously on days 1, 4, 8, 11, day 15
[8] = 120 mg/kg/day intravenously on days 1, 4, 8, 11, day 15

Nc1ncnc2c1c(C#Cc1c(F)cccc1F)cn2[C@@H]1O[C@H](CNS(N)(=O)=O)[C@@H](O)[C@H]1O [Example 1, 4-Amino-5-[2-(2,6-difluorophenyl)ethynyl]-7-[(2R,3R,4S,5R)-3,4-dihydroxy-5-[(sulfamoylamino)methyl]tetrahydrofuran-2-yl]pyrrolo[2,3-d]pyrimidine]
T/C15 (%) [1, 7]: 23% | change of the body weight compared with the control ([1]; HCT-116 xenograft mice): within an acceptable degree | RTV comparison with the Comparative Example ([1]; HCT-116 xenograft, Aspin-Welch's t-test): significantly lower than that of the Comparative Example | RTV15 comparison with the control ([1]; HCT-116 xenograft): significantly lower than that of the control | BWC15 (%) Mean ± SD [1, 7]: −11.8 ± 4.7%

Nc1ncnc2c1c(C#Cc1c(F)cc(N3CC[C@@H](O)C3)cc1F)cn2[C@@H]1C[C@H](CNS(N)(=O)=O)[C@@H](O)[C@H]1O [Example 120, 4-Amino-5-[2-[2,6-difluoro-4-[(3R)-3-hydroxypyrrolidin-1-yl]phenyl]ethynyl]-7-[(1R,2S,3R,4R)-2,3-dihydroxy-4-[(sulfamoylamino)methyl]cyclopentyl]pyrrolo[2,3-d]pyrimidine]
IC50 (carbonic anhydrase II): > 1 µM | IC50 [2]: 0.0043 µM | RTV comparison with the control on day 15 [3]: significantly lower than that of the control | change of the body weight compared with the control ([3]; CCRF-CEM xenograft mice): almost the same as that of the control

NS(=O)(=O)OC[C@@H]1C[C@@H](n2ccc3c(N[C@H]4CCc5ccccc54)ncnc32)C[C@@H]1O [Comparative Example, N-[(1S)-1-indanyl]-7-[(1R)-3α-hydroxy-4α-(sulfamoyloxymethyl)cyclopentyl]-7H-pyrrolo[2,3-d]pyrimidin-4-amine, reference compound]
IC50 (carbonic anhydrase II): 0.012 µM | pIC50 [4]: < 5.00

NS(=O)(=O)OC[C@@H]1C[C@@H](n2ccc3c(N[C@H]4CCc5ccccc54)ncnc32)C[C@H]1O [Comparative Example, N-[(1S)-1-indanyl]-7-[(1R)-3α-hydroxy-4α-(sulfamoyloxymethyl)cyclopentyl]-7H-pyrrolo[2,3-d]pyrimidin-4-amine, reference compound]
T/C15 ([5]; HCT-116 xenograft in mice, 120 mg/kg/day intravenous, administration days 1, 4, 8, 11, day 15): 51% | RTV15 comparison with the control ([5]; HCT-116 xenograft, hydrochloride compound of Example 55, Dunnett's test): significantly lower than that of the control | BWC15 Mean ± SD ([5]; body weight change rate, HCT-116 xenograft in mice, 120 mg/kg/day intravenous, days 1, 4, 8, 11, day 15): −8.4 ± 3.2% | inhibitory activity against carbonic anhydrase II (carbonic anhydrase II): exhibited inhibitory activity | T/C15 (%) [1, 8]: 36% | RTV15 comparison with the control ([1]; HCT-116 xenograft): significantly lower than that of the control | BWC15 (%) Mean ± SD [1, 8]: −14.3 ± 5.1% | T/C15 ([6]; administration days 1, 4, 8, 11, day 15): 47% | BWC15 Mean ± SD ([6]; body weight change rate, days 1, 4, 8, 11, day 15): 6.1 ± 2.6% | RTV comparison with the control on day 15 [3]: significantly lower than that of the control
